Data reported in patent publication US20170304168A1, “PHENYL KETONE DERIVATIVES AS SELF-TANNING AGENTS” (MERCK PATENT GmbH, priority 2012, published 2017).

Test system: B16V mouse melanoma cells
Test: B16 V mouse melanoma cell test (melanin content)
Type: cell-based
Conditions: for Melanin content in pg/B-16V cell: relative to negative control DMSO 0.1% = 100
Protocol: mouse melanoma cells (manufacturer: DSMZ; Article No.: ACC370) in RPMI medium (Invitrogen, Article No.: 31870), to which 10% of FBS (foetal bovine serum; Invitrogen, Article No.: 10499044), 2 mM L-glutamine (Invitrogen, Article No: 25030) and 1 mM sodium pyruvate (Invitrogen, Article No.: 11360) had additionally been added (=modified RPMI medium), are transferred into a culture flask and incubated at 37° C. and 5% CO2 for 72 h. The medium is separated off, and the cells are washed with 10 ml of D-PBS (Dulbecco's phosphate-buffered salines; Invitrogen, Article No.: 14190) and subsequently removed by suction. 1 ml of HyQtase cell detachment solution (Hyclone, Article No.: SV30030.01) is added to the cells. The bottle is swirled a number of times, and the HyQtase cell detachment solution is subsequently removed by suction. The cells are then incubated in the incubator at 37° C. and 5% CO2 for 5 min. The cells are taken up in the modified RPMI medium (see above), and the cell count is determined. To this end, the cells are stained with Trypan Blue and counted in a Neubauer chamber. The cells are subsequently sown out again in the modified RPMI medium (see above) in a defined cell count of 80,000 cells per well (6-well clear plate, TCT, PS (Nunc)). The cells are incubated at 37° C. and 5% CO2 for 24 h, the medium is then removed. The substance to be investigated (see table below) is subsequenly added in various concentrations. After the final incubation period, the medium is removed by suction, and the cells are washed with 1000 μl of D-PBS (Invitrogen, Article No.: 14190). The medium is again removed by suction. 250 μl of HyQtase cell detachment solution (Hyclone, Article No.: SV30030.01) are added to the cells. The 6-well plate is swirled a number of times, and the HyQtase cell detachment solution is subsequently removed by suction. The cells are then incubated in the incubator at 37° C. and 5% CO2 for 5 min. The cells are taken up in 1.5 ml of DPBS (Invitrogen, Article No.: 14190) and transferred into a cup (SARSTEDT, Ref. 72.692.005). The cell count is subsequently determined. To this end, the cells are stained with Trypan Blue and counted in a NeuBauer chamber. The cells are then centrifuged at 3500 g for 1 min. The pellets obtained are photographed, and the supernatant is subsequently removed by suction. The pellets are dissolved in 1 ml of 1N NaOH at 80° C. for 1 h and then cooled to RT. 200 μl per cup (as quadruple determination) are subsequently pipetted into a 96-well plate (VWR, Article No.: 4100636981), and the absorption at a wavelength of 405 nm is determined (Safire, Tecan). The content of melanin can be determined in this way by means of a calibration line. As comparison with the compounds of the formula I to be investigated, a sample with dimethyl sulfoxide (DMSO) (0.1%) as negative control and a sample with IBMX (200 μm) as positive control are each investigated in parallel. The following tables give the results of the determination of the melanin concentration obtained for the substance dilutions indicated. The results obtained are quoted relative to the negative control with dimethyl sulfoxide (DMSO), whose measurement value is set to 100%. IBMX serves as positive control.

[1] = Test 1, 300 μM (printed 300 µM)

Compound | Effect on melanogenesis (result in words) (Result of Test 2) | Melanin content in pg/B-16V cell (Test 2, 100 μM) | Melanin content in pg/B-16V cell (Test 2, 500 μM) | Effect on melanogenesis (result in words) (Result of Test 1) | Melanin content in pg/B-16V cell (Test 1, 50 μM) | also measured
CC(=O)c1ccccc1N [Ig] | promote melanogenesis | 133 pg/B-16V cell | 209 pg/B-16V cell |  |  | 
CC(C)Cn1c(=O)n(C)c(=O)c2[nH]cnc21 [IBMX, reference compound] |  |  |  |  |  | Melanin content in pg/B-16V cell (Test 1, 200 μM (printed 200 µM)): 726 pg/B-16V cell; Melanin content in pg/B-16V cell (Test 2, 200 μM (printed 200 µM)): 338 pg/B-16V cell
COc1ccccc1C(C)=O [Ib, 1-(2-Methoxyphenyl)ethanone] |  |  |  | promote melanogenesis | 202 pg/B-16V cell | Melanin content in pg/B-16V cell [1]: 318 pg/B-16V cell; Melanin content in pg/B-16V cell (Test 1, 1 mM): 611 pg/B-16V cell
CC(=O)c1c(O)cc(O)cc1O [Ic] |  |  |  | promote melanogenesis | 129 pg/B-16V cell | Melanin content in pg/B-16V cell (Test 1, 100 μM): 144 pg/B-16V cell; Melanin content in pg/B-16V cell (Test 1, 500 μM): 184 pg/B-16V cell
COc1cccc(O)c1C(C)=O [Id, 1-(2-Hydroxy-6-methoxyphenyl)ethanone] | promote melanogenesis | 275 pg/B-16V cell | 432 pg/B-16V cell |  |  | 
COc1cc(OC)c(C(C)=O)c(OC)c1 [Ih] | promote melanogenesis | 126 pg/B-16V cell | 164 pg/B-16V cell |  |  | 
COc1ccc(C(C)=O)c(OC)c1 [Ie, 1-(2,4-Dimethoxyphenyl)-ethanone] | promote melanogenesis | 104 pg/B-16V cell | 121 pg/B-16V cell |  |  | 
CC(=O)c1ccccc1O [Ia, 1-(2-Hydroxyphenyl)ethanone] |  |  |  | promote melanogenesis | 191 pg/B-16V cell | Melanin content in pg/B-16V cell [1]: 429 pg/B-16V cell; Melanin content in pg/B-16V cell (Test 1, 1 mM): 438 pg/B-16V cell
